According to EPA's ToxValDB 9.5 (doi:10.2903/j.efsa.2018.5405):
In brackets after ≈: the same amount, converted by molar mass.

How the values were obtained:
[1] = test system: Bibionidae; settings: chronic/long-term; duration: 28 days; development
[2] = test system: Neomysis kadiakensis; settings: chronic/long-term; duration: 28 days; development
[3] = test system: Hypoaspis aculeifer; settings: chronic/long-term; reproduction
[4] = test system: Oncorhynchus mykiss; settings: for LC50: acute, duration: 96 hours, mortality
[5] = test system: Anas platyrhynchos; settings: reproductive
[6] = test system: Colinus virginianus; settings: acute; oral; mortality
[7] = test system: Apis mellifera; settings: acute, mortality
[8] = test system: Rattus norvegicus
[9] = test system: Typhlodromus pyri; assay: LR50; higher = less toxic; settings: acute; mortality
[10] = test system: Tagia sp.; settings: chronic/long-term; reproduction

Compound | NOEC [1] [µg/L] | NOEC [2] [µg/L] | NOEC [3] [mg/kg] | LC50 [4] [µg/mL] | NOEC ([4]; chronic/long-term, duration: 58 days, growth) [µg/L] | NOAEL [5] [mg/kg-day] | LD50 [6] [mg/kg-day] | LD50 ([7]; dermal) [µg/piece] | LD50 ([7]; oral, unspecified) [µg/piece] | LD50 ([8]; acute, oral, mortality) [mg/kg-day] | NOAEL ([8]; chronic) [mg/kg-day] | NOAEL ([8]; subchronic, duration: 13 weeks, inhalation, behavior) [mg/kg-day] | LR50 [9] [g/ha] | NOEC [10] [mg/kg]
CC1(C)C(C=C(Cl)Cl)[C@@H]1C(=O)O[C@@H](C#N)c1ccc(F)c(Oc2ccccc2)c1 (stereo partly drawn) [beta-Cyfluthrin] | 0.0057 | 0.00041 | 0.485 | 6.8e-05 (≈ 0.000157 µM) | 0.0042 | 2.6 | > 58.6 | 0.012 | 0.05 | > 8.79 | 1.39 | 0.02 | 0.0025 | 
O=C(O)c1ccc(F)c(Oc2ccccc2)c1 [4-Fluoro-3-phenoxybenzoic acid] |  |  |  | 4.06 (≈ 17.5 µM) |  |  |  |  |  |  |  |  |  | 2.6
